Measured values taken from patent US20070117743A1, “New antitumoral compounds” (priority 2003, published 2007).
Where two headings read alike, the source gives them in different places. Where a SMILES comes first, the peptide text is derived from it. Bridges are numbered along the chain shown (N, C = ends). [ ]: non-standard residue; d: D form. The star is where a group is joined. d(aIle) = CC[C@H](C)[C@@H](N)C(=O)O; d(aThr) = C[C@@H](O)[C@@H](N)C(=O)O; Hexanoyl(5-Me) = CC(C)CCCC(=O)*; Orn = NCCC[C@H](N)C(=O)O; Dhb = C/C=C(\N)C(=O)O; Aib = CC(C)(N)C(=O)O; Dha = C=C(N)C(=O)O

What was measured:
Assay type in all cases: cell-based, human
IGROV-ET = test: SRB colorimetric assay of cell growth and viability, IGROV-ET; conditions: 48 hours exposure; for CC50: read-out: LC50 IGROV-ET
LoVo = test: SRB colorimetric assay of cell growth and viability, LoVo; conditions: 48 hours exposure, SRB; for CC50: read-out: LC50 LOVO
K-562 = test: SRB colorimetric assay of cell growth and viability, K-562; conditions: 48 hours exposure, SRB; for CC50: read-out: LC50 K-562
A-549 = test: SRB colorimetric assay of cell growth and viability, A-549; conditions: 48 hours exposure, SRB; for GI50: read-out: GI50 A-549; for CC50: read-out: LC50 A-549
IGROV-1 = test: SRB colorimetric assay of cell growth and viability, IGROV-1; conditions: 48 hours exposure
HT-29 = test: SRB colorimetric assay of cell growth and viability, HT-29; conditions: 48 hours exposure, SRB; for GI50: read-out: GI50 HT-29; for CC50: read-out: LC50 HT-29
SK-BR-3 = test: SRB colorimetric assay of cell growth and viability, SK-BR-3; conditions: 48 hours exposure
LoVo-Dox = test: SRB colorimetric assay of cell growth and viability, LoVo-Dox; conditions: 48 hours exposure, SRB; for CC50: read-out: LC50 LOVO-DOX
In short: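 SRB staining (0.4% wt/vol in 1% acetic acid, 10 min, room temperature) of cells fixed with 50% TCA follows a 48-hour exposure to compound. Plating density is 5×10^3 cells/well, and the OD is taken at 490 nm.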

HeLa-APL = test: SRB colorimetric assay of cell growth and viability, HeLa-APL; conditions: 48 hours exposure, SRB; for CC50: read-out: LC50 HELA-APL
HeLa = test: SRB colorimetric assay of cell growth and viability, HeLa; conditions: 48 hours exposure, SRB; for CC50: read-out: LC50 HELA
PANC-1 = test: SRB colorimetric assay of cell growth and viability, PANC-1; conditions: 48 hours exposure, SRB; for CC50: read-out: LC50 PANC-1
DU-145 = test: SRB colorimetric assay of cell growth and viability, DU-145; conditions: 48 hours exposure
SK-MEL-28 = test: SRB colorimetric assay of cell growth and viability, SK-MEL-28; conditions: 48 hours exposure; for CC50: read-out: LC50 MEL-28
LNCaP = test: SRB colorimetric assay of cell growth and viability, LNCaP; conditions: 48 hours exposure; for CC50: read-out: LC50 LN-caP; for GI50: read-out: GI50 LN-caP

## CC[C@H](C)[C@@H](NC(=O)[C@H](CCCN)NC(=O)[C@H]1CCCN1C(=O)[C@H](NC(=O)[C@@H](NC(=O)[C@@H](NC(=O)[C@H](NC(=O)CCCC(C)C)C(C)C)[C@@H](C)O)C(C)C)C(C)C)C(=O)N[C@H]1C(=O)N[C@H]([C@@H](C)CC)C(=O)N[C@H](C(C)C)C(=O)N[C@@H](Cc2ccccc2)C(=O)NC(C)(C)C(=O)N[C@@H](C(C)C)C(=O)O[C@@H]1C [Compound 66, [Aib^2]-KF] ({Hexanoyl(5-Me)}-[dV]TV[dV][dP][Orn][d(aIle)][d(aThr)][d(aIle)][dV]F[Aib]V; ester 8-C)
IGROV-ET
  GI50: 1.21 µM
  TGI IGROV-ET: 2.43E−06 Molar
IGROV-ET; SRB
  CC50: 4.89 µM
LoVo
  GI50: 1.3 µM
  TGI LOVO: 2.47E−06 Molar
  CC50: 4.71 µM
K-562
  GI50: ≥ 6.76 µM
  TGI K-562: 6.76E−06 Molar
  CC50: ≥ 6.76 µM
A-549
  TGI A-549: 6.76E−06 Molar
  GI50: 4.96 µM
  CC50: ≥ 6.76 µM
IGROV-1
  GI50: 1.57 µM
  TGI IGROV: 2.82E−06 Molar
IGROV-1; SRB
  LC50 (concentration causing 50% net cell killing): 5.05 µM
HT-29
  TGI HT-29: 2.54E−06 Molar
  GI50: 1.28 µM
  CC50: 5.06 µM
SK-BR-3
  GI50: 1.49 µM
  TGI SK-BR-3: 2.67E−06 Molar
SK-BR-3; SRB
  LC50: 4.77 µM
LoVo-Dox
  GI50: 1.07 µM
  TGI LOVO-DOX: 2.26E−06 Molar
  CC50: 4.8 µM
HeLa-APL
  GI50: 3.41 µM
  TGI HELA-APL: 6.76E−06 Molar
  CC50: ≥ 6.76 µM
HeLa
  GI50: 3.17 µM
  TGI HELA: 6.76E−06 Molar
  CC50: ≥ 6.76 µM
PANC-1
  GI50: ≥ 6.76 µM
  TGI PANC-1: 6.76E−06 Molar
  CC50: ≥ 6.76 µM
DU-145
  GI50: 1.36 µM
  TGI DU-145: 2.73E−06 Molar
DU-145; SRB
  LC50 (concentration causing 50% net cell kill): 5.45 µM
SK-MEL-28
  GI50: 2.24 µM
  TGI MEL-28: 6.14E−06 Molar
SK-MEL-28; SRB
  CC50: ≥ 6.76 µM
LNCaP
  TGI LN-caP: 6.76E−06 Molar
  GI50: 4.63 µM
LNCaP; SRB
  CC50: ≥ 6.76 µM

## C=C1NC(=O)[C@H](Cc2ccccc2)NC(=O)[C@@H](C(C)C)NC(=O)[C@@H]([C@@H](C)CC)NC(=O)[C@H](NC(=O)[C@H](NC(=O)[C@H](CCCN)NC(=O)[C@H]2CCCN2C(=O)[C@H](NC(=O)[C@@H](NC(=O)[C@@H](NC(=O)[C@H](NC(=O)CCCC(C)C)C(C)C)[C@@H](C)O)C(C)C)C(C)C)[C@@H](C)CC)[C@@H](C)OC(=O)[C@H](C(C)C)NC1=O [Compound 67, [Dha^2]-KF] ({Hexanoyl(5-Me)}-[dV]TV[dV][dP][Orn][d(aIle)][d(aThr)][d(aIle)][dV]F[Dha]V; ester 8-C)
IGROV-ET; SRB
  GI50: 0.39 µM
  TGI IGROV-ET: 1.33E−06 Molar
  CC50: 4.53 µM
LoVo
  GI50: 0.173 µM
  TGI LOVO: 3.40E−07 Molar
  CC50: 0.669 µM
K-562
  GI50: 2.92 µM
  TGI K-562: 6.83E−06 Molar
  CC50: ≥ 6.83 µM
A-549
  TGI A-549: 2.70E−06 Molar
  GI50: 1.44 µM
  CC50: 5.06 µM
IGROV-1; SRB
  GI50: 0.553 µM
  LC50 (concentration causing 50% net cell killing): 4.59 µM
  TGI IGROV: 1.58E−06 Molar
HT-29
  TGI HT-29: 9.63E−07 Molar
  GI50: 0.347 µM
  CC50: 4.17 µM
SK-BR-3; SRB
  GI50: 0.32 µM
  LC50: 2.21 µM
  TGI SK-BR-3: 5.56E−07 Molar
LoVo-Dox
  GI50: 0.264 µM
  TGI LOVO-DOX: 5.61E−06 Molar
  CC50: 2.47 µM
HeLa-APL
  GI50: 1.09 µM
  TGI HELA-APL: 2.03E−06 Molar
  CC50: 3.75 µM
HeLa
  GI50: 1.15 µM
  TGI HELA: 2.15E−06 Molar
  CC50: 4 µM
PANC-1
  GI50: ≥ 6.83 µM
  TGI PANC-1: 6.83E−06 Molar
  CC50: ≥ 6.83 µM
DU-145; SRB
  GI50: 0.915 µM
  LC50 (concentration causing 50% net cell kill): 3.4 µM
  TGI DU-145: 1.77E−06 Molar
SK-MEL-28; SRB
  GI50: 1.13 µM
  TGI MEL-28: 2.25E−06 Molar
  CC50: 4.51 µM
LNCaP; SRB
  TGI LN-caP: 4.60E−06 Molar
  GI50: 1.83 µM
  CC50: ≥ 6.83 µM

## C/C=C1\NC(=O)[C@H](Cc2c[nH]c3ccccc23)NC(=O)[C@@H](C(C)C)NC(=O)[C@@H]([C@@H](C)CC)NC(=O)[C@H](NC(=O)[C@H](NC(=O)[C@H](CCCN)NC(=O)[C@H]2CCCN2C(=O)[C@H](NC(=O)[C@@H](NC(=O)[C@@H](NC(=O)[C@H](NC(=O)CCCC(C)C)C(C)C)[C@@H](C)O)C(C)C)C(C)C)[C@@H](C)CC)[C@@H](C)OC(=O)[C@H](C(C)C)NC1=O [Compound 68, [Trp^3]-KF] ({Hexanoyl(5-Me)}-[dV]TV[dV][dP][Orn][d(aIle)][d(aThr)][d(aIle)][dV]W[Dhb]V; ester 8-C)
IGROV-ET; SRB
  GI50: 0.15 µM
  TGI IGROV-ET: 2.73E−07 Molar
  CC50: 0.499 µM
LoVo
  GI50: 0.337 µM
  TGI LOVO: 9.49E−07 Molar
  CC50: 2.62 µM
K-562
  GI50: 3.7 µM
  TGI K-562: 6.59E−06 Molar
  CC50: 6.59 µM
A-549
  TGI A-549: 2.83E−06 Molar
  GI50: 1.56 µM
  CC50: 5.12 µM
IGROV-1; SRB
  GI50: 0.087 µM
  LC50 (concentration causing 50% net cell killing): 0.453 µM
  TGI IGROV: 1.98E−07 Molar
HT-29
  TGI HT-29: 1.40E−06 Molar
  GI50: 0.512 µM
  CC50: 3.66 µM
SK-BR-3; SRB
  GI50: 0.15 µM
  LC50: 0.655 µM
  TGI SK-BR-3: 3.13E−07 Molar
LoVo-Dox
  GI50: 0.281 µM
  TGI LOVO-DOX: 6.47E−07 Molar
  CC50: 2.53 µM
HeLa-APL
  GI50: 0.943 µM
  TGI HELA-APL: 1.90E−06 Molar
  CC50: 3.82 µM
HeLa
  GI50: 1.03 µM
  TGI HELA: 2.05E−06 Molar
  CC50: 4.04 µM
PANC-1
  GI50: 6.59 µM
  TGI PANC-1: 6.59E−06 Molar
  CC50: 6.59 µM
DU-145; SRB
  GI50: 0.47 µM
  LC50 (concentration causing 50% net cell kill): 2.85 µM
  TGI DU-145: 1.21E−06 Molar
SK-MEL-28; SRB
  GI50: 1.25 µM
  TGI MEL-28: 2.17E−06 Molar
  CC50: 3.77 µM
LNCaP; SRB
  TGI LN-caP: 2.36E−06 Molar
  GI50: 1.05 µM
  CC50: 5.29 µM

## C/C=C1\NC(=O)[C@@H](Cc2ccccc2)NC(=O)[C@H](C(C)C)NC(=O)[C@H]([C@H](C)CC)NC(=O)[C@@H](NC(=O)[C@@H](NC(=O)[C@@H](CCCN)NC(=O)[C@@H]2CCCN2C(=O)[C@@H](NC(=O)[C@H](NC(=O)[C@H](NC(=O)[C@@H](NC(=O)CCCC(C)C)C(C)C)[C@H](C)O)C(C)C)C(C)C)[C@H](C)CC)[C@H](C)OC(=O)[C@@H](C(C)C)NC1=O [Compound 69, [D-Val^1, D-Phe^3, Val^4, alo-Ile^5, alo-Thr^6, alo-Ile^7, D-Orn^8, Pro^9, Val^10, D-Val^11, D-Thr^12, Val^13] KF]
IGROV-ET; SRB
  GI50: ≥ 6.77 µM
  TGI IGROV-ET: 6.77E−06 Molar
  CC50: ≥ 6.77 µM
LoVo
  GI50: ≥ 6.77 µM
  TGI LOVO: 6.77E−06 Molar
  CC50: ≥ 6.77 µM
K-562
  GI50: ≥ 6.77 µM
  TGI K-562: 6.77E−06 Molar
  CC50: ≥ 6.77 µM
A-549
  TGI A-549: 6.77E−06 Molar
  GI50: ≥ 6.77 µM
  CC50: ≥ 6.77 µM
IGROV-1; SRB
  GI50: 4.37 µM
  LC50 (concentration causing 50% net cell killing): ≥ 6.77 µM
  TGI IGROV: 6.77E−06 Molar
HT-29
  TGI HT-29: 6.77E−06 Molar
  GI50: ≥ 6.77 µM
  CC50: ≥ 6.77 µM
SK-BR-3; SRB
  GI50: 6.72 µM
  LC50: ≥ 6.77 µM
  TGI SK-BR-3: 6.77E−06 Molar
LoVo-Dox
  GI50: ≥ 6.77 µM
  TGI LOVO-DOX: 6.77E−06 Molar
  CC50: ≥ 6.77 µM
HeLa-APL
  GI50: ≥ 6.77 µM
  TGI HELA-APL: 6.77E−06 Molar
  CC50: ≥ 6.77 µM
HeLa
  GI50: ≥ 6.77 µM
  TGI HELA: 6.77E−06 Molar
  CC50: ≥ 6.77 µM
PANC-1
  GI50: ≥ 6.77 µM
  TGI PANC-1: 6.77E−06 Molar
  CC50: ≥ 6.77 µM
DU-145; SRB
  GI50: ≥ 6.77 µM
  LC50 (concentration causing 50% net cell kill): ≥ 6.77 µM
  TGI DU-145: 6.77E−06 Molar
SK-MEL-28; SRB
  GI50: ≥ 6.77 µM
  TGI MEL-28: 6.77E−06 Molar
  CC50: ≥ 6.77 µM
LNCaP; SRB
  TGI LN-caP: 6.77E−06 Molar
  GI50: 2.35 µM
  CC50: ≥ 6.77 µM
